From patent US8536332B2, “Modulating signal transduction pathways with substituted pyridol [2,3-b] pyrazines” (Aeterna Zentaris GmbH, priority 2007, dated 2013)

SMILES | melting point
CCNC(=S)Nc1ccc2ncc(Nc3ccc(F)c([N+](=O)[O-])c3)nc2n1 [Compound 489, 1-Ethyl-3-[3-(4-fluoro-3-nitro-phenylamino)-pyrido[2,3-b]pyrazin-6-yl]-thiourea] | 260 °C
CCNC(=O)Nc1cnc2ccc(N3CCCN(C)CC3)nc2n1 [Compound 233, 1-Ethyl-3-[6-(4-methyl-[1,4]diazepan-1-yl)-pyrido[2,3-b]pyrazin-3-yl]-urea] | 199 to 201 °C
COc1cc(-c2ccc3ncc(NC(=O)Nc4ccnc(N5CCOCC5)c4)nc3n2)ccc1O [Compound 607, 1-[6-(4-Hydroxy-3-methoxy-phenyl)-pyrido[2,3-b]pyrazin-3-yl]-3-(2-morpholin-4-yl-pyridin-4-yl)-urea] | 260 to 263 °C
CNC(=O)Nc1cnc2ccc(-c3ccc(O)c(OC)c3)nc2n1 [Compound 172, 1-[6-(4-Hydroxy-3-methoxy-phenyl)-pyrido[2,3-b]pyrazin-3-yl]-3-methyl-urea] | 242 to 244 °C
CCNC(=O)Nc1ccc2ncc(-c3ccc4c(c3)N(C)CCO4)nc2n1 [Compound 35, 1-Ethyl-3-[3-(4-methyl-3,4-dihydro-2H-benzo[1,4]oxazin-6-yl)-pyrido[2,3-b]pyrazin-6-yl]-urea] | 245 to 247 °C
O=C(Nc1ccc(N2C(=O)C=CC2=O)cc1)Nc1cnc2ccc(-c3cc(Cl)c(O)c(Cl)c3)nc2n1 [Compound 565, 1-[6-(3,5-Dichloro-4-hydroxy-phenyl)-pyrido[2,3-b]pyrazin-3-yl]-3-[4-(2,5-dioxo-2,5-dihydro-pyrrol-1-yl)-phenyl]-urea] | > 300 °C
CCNC(=O)Nc1ccc2ncc(Nc3ccc(C(=O)OC)c(OC)c3)nc2n1 [Compound 87, 4-[6-(3-Ethyl-ureido)-pyrido[2,3-b]pyrazin-3-ylamino]-2-methoxy-benzoic acid methyl ester] | 256 to 259 °C
CCNC(=O)Nc1ccc2ncc(-c3cncn3C)nc2n1 [Compound 53, 1-Ethyl-3-[3-(3-methyl-3H-imidazol-4-yl)-pyrido[2,3-b]pyrazin-6-yl]-urea] | 257 to 259 °C
O=C(Nc1ccccc1)Nc1cnc2ccc(Nc3ccccc3)nc2n1 [Compound 14, 1-Phenyl-3-(6-phenylamino-pyrido[2,3-b]pyrazin-3-yl)-urea] | 251 °C
CCNC(=O)Nc1ccc2ncc(-c3cccc(CO)c3)nc2n1 [Compound 115, 1-Ethyl-3-[3-(3-hydroxymethyl-phenyl)-pyrido[2,3-b]pyrazin-6-yl]-urea] | 200 to 202 °C
CCCNC(=O)Nc1cnc2ccc(-c3ccc(OC)c(OC)c3)nc2n1 [Compound 570, 1-[6-(3,4-Dimethoxy-phenyl)-pyrido[2,3-b]pyrazin-3-yl]-3-propyl-urea] | 246 to 248 °C
CCNC(=O)Nc1ccc2ncc(-c3cccc([N+](=O)[O-])c3)nc2n1 [Compound 101, 1-Ethyl-3-[3-(3-nitro-phenyl)-pyrido[2,3-b]pyrazin-6-yl]-urea] | 249 to 253 °C
CCNC(=O)Nc1ccc2ncc(-c3ccc(-c4ccccc4)cc3F)nc2n1 [Compound 84, 1-Ethyl-3-[3-(3-fluoro-biphenyl-4-yl)-pyrido[2,3-b]pyrazin-6-yl]-urea] | 263.9 to 265.6 °C
CCNC(=O)Nc1ccc2ncc(-c3ccc(OP(=O)(OCC)OCC)c(OC)c3)nc2n1 | 182 to 184 °C
CCNC(=S)Nc1ccc2ncc(Nc3cccc(OC(C)C)c3)nc2n1 [Compound 163, 1-Ethyl-3-[3-(3-isopropoxy-phenylamino)-pyrido[2,3-b]pyrazin-6-yl]-thiourea] | 238 °C
CCNC(=O)Nc1ccc2ncc(-c3ccc(NC(=O)OCCOC)c(OC)c3)nc2n1 [Compound 40, {4-[6-(3-Ethyl-ureido)-pyrido[2,3-b]pyrazin-3-yl]-2-methoxy-phenyl}-carbamic acid 2-methoxy-ethyl ester] | > 240 °C

SMILES | melting point
CCCCOc1c(C)cc(-c2ccc3ncc(NC(=O)NCC)nc3n2)cc1C [Compound 599, 1-[6-(4-Butoxy-3,5-dimethyl-phenyl)-pyrido[2,3-b]pyrazin-3-yl]-3-ethyl-urea] | 233 °C
CCNC(=O)Nc1ccc2ncc(-c3ccc(C(=O)OC)cc3)nc2n1 [Compound 132, 4-[6-(3-Ethyl-ureido)-pyrido[2,3-b]pyrazin-3-yl]-benzoic acid methyl ester] | 260 °C
CCNC(=O)Nc1ccc2ncc(-c3cccc(Br)c3OC(C)C)nc2n1 [Compound 67, 1-[3-(3-Bromo-2-isopropoxy-phenyl)-pyrido[2,3-b]pyrazin-6-yl]-3-ethyl-urea] | 200 to 202 °C
COc1cc(-c2ccc3ncc(NC(=S)NC4CCCC4)nc3n2)ccc1O [Compound 519, 1-Cyclopentyl-3-[6-(4-hydroxy-3-methoxy-phenyl)-pyrido[2,3-b]pyrazin-3-yl]-thiourea] | 233 to 235 °C
CCNC(=S)Nc1ccc2ncc(Nc3ccc(O)c(Cl)c3)nc2n1 [Compound 441, 1-[3-(3-Chloro-4-hydroxy-phenylamino)-pyrido[2,3-b]pyrazin-6-yl]-3-ethyl-thiourea] | 220 °C
Cc1cc(-c2ccc3ncc(NC(=O)Nc4ccc(N(C)C)cc4)nc3n2)cc(C)c1O [Compound 583] | 273 to 275 °C
CCNC(=O)Nc1cnc2ccc(-c3cc(C)c(O)c(Cl)c3)nc2n1 [Compound 642, 1-[6-(3-Chloro-4-hydroxy-5-methyl-phenyl)-pyrido[2,3-b]pyrazin-3-yl]-3-ethyl-urea] | 266 °C
CCCCCCNC(=O)Nc1cnc2ccc(-c3ccc(O)c(OC)c3)nc2n1 [Compound 627, 1-Hexyl-3-[6-(4-hydroxy-3-methoxy-phenyl)-pyrido[2,3-b]pyrazin-3-yl]-urea] | 234 to 235 °C
CCNC(=S)Nc1cnc2ccc(Nc3ccc(OC)c(O)c3)nc2n1 [Compound 205, 1-Ethyl-3-[6-(3-hydroxy-4-methoxy-phenylamino)-pyrido[2,3-b]pyrazin-3-yl]-thiourea] | 166 °C
CCNC(=O)Nc1ccc2ncc(-c3cnn(CC(C)C)c3)nc2n1 [Compound 59, 1-Ethyl-3-[3-(1-isobutyl-1H-pyrazol-4-yl)-pyrido[2,3-b]pyrazin-6-yl]-urea] | 189 to 191 °C
CC(=O)Nc1ccc2ncc(Nc3cccc(OC(C)C)c3)nc2n1 [Compound 36, N-[3-(3-Isopropoxy-phenylamino)-pyrido[2,3-b]pyrazin-6-yl]-acetamide] | 177 °C
CCNC(=O)Nc1cnc2ccc(-c3ccc(OC)cc3)nc2n1 [Compound 11, 1-Ethyl-3-[6-(4-methoxy-phenyl)-pyrido[2,3-b]pyrazin-3-yl]-urea] | 244 °C
COc1cc(-c2ccc3ncc(NC(=O)Nc4ccc(Cl)cc4)nc3n2)ccc1O [Compound 529, 1-(4-Chloro-phenyl)-3-[6-(4-hydroxy-3-methoxy-phenyl)-pyrido[2,3-b]pyrazin-3-yl]-urea] | 224 to 226 °C
CCNC(=O)Nc1ccc2ncc(-c3cc(C)cc(C)c3)nc2n1 [Compound 82, 1-[3-(3,5-Dimethyl-phenyl)-pyrido[2,3-b]pyrazin-6-yl]-3-ethyl-urea] | 255.3 to 257.9 °C
CCNC(=S)Nc1ccc2ncc(Nc3cc(OC)cc(OC)c3)nc2n1 [Compound 157, 1-[3-(3,5-Dimethoxy-phenylamino)-pyrido[2,3-b]pyrazin-6-yl]-3-ethyl-thiourea] | 265 °C
